Reference: BindingDB's records for doi:10.7270/Q2XG9T96 (n/a, 1997)

Target: Phosphatidylinositol 4-kinase type 2-alpha (Homo sapiens, UniProt Q9BTU6)
Assay: Inhibition of Phosphatidylinositol 4-kinase of human epidermoid carcinoma A431 cells

Phosphatidylinositol 4-kinase type 2-alpha, sequence (Q9BTU6 whole entry): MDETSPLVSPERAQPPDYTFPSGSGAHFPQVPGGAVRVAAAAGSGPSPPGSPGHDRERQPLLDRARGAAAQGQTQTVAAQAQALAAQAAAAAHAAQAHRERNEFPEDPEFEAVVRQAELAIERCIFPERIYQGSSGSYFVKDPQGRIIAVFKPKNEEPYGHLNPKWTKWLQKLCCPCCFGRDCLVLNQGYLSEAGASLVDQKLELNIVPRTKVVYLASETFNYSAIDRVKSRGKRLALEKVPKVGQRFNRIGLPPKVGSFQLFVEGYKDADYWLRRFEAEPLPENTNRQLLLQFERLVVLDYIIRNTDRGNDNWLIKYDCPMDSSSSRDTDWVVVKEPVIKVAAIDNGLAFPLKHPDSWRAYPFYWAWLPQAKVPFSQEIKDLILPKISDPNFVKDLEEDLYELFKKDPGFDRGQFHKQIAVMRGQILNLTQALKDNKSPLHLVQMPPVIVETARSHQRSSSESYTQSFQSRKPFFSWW

IC50: 113 nM
Structure (SMILES): N=C(N)CCNC(=O)c1c[nH]c2nc(N)nc(O)c12 [ECHIGUANINE A]
